Laboratory results: US5391540A, “Substituted pyridine compounds” (Rohm and Haas Company, priority 1993, dated 1995)

Experiments:
Assay in all cases: Pre-emergent herbicidal activity (Table A)
Format in all cases: in vivo
Cocklebur = details: Xanthium strumarium, pre-emergence, Cobu, 11.2 kg/ha, 10-14 days, read-out: herbicidal rating (% inhibition)
Protocol: (§1) The herbicidal ratings used in Tables A and B were assigned according to a scale based on the percent inhibition of each plant species. The herbicide rating symbols in Tables A and B are defined as follows: […]
(§2) One set of pre-emergent tests was conducted as follows:
(§3) Topsoil was placed in a pan and compacted to a depth of 0.95 to 1.27 cm. from the top of the pan. A predetermined number of seeds of each of several monocotyledonous and dicotyledonous annual plant species and/or vegetative propagules of various perennial plant species were placed on top of the soil. The soil required to level fill a pan after seeding or adding vegetative propagules was weighed into another pan. A known amount of the test compound dissolved or suspended in an organic solvent or water and applied in acetone or water as a carrier was thoroughly mixed with this cover soil, and the herbicide/soil mixture was used as a cover layer for the previously prepared pan.
(§4) The plant species usually regarded as weeds which were utilized in one set of pre-emergent activity tests, the data for which are shown in Table A, are identified by letter headings printed diagonally above the columns according to the following legend: […]

Velvetleaf = details: Abutilon theophrasti, pre-emergence, Vele, 11.2 kg/ha, 10-14 days, read-out: herbicidal rating (% inhibition)
Protocol: as §1, §2, §3, §4

Yellow Nutsedge = details: Cyperus, pre-emergence, Yens, 11.2 kg/ha, 10-14 days, read-out: herbicidal rating (% inhibition)
Protocol: as §1, §2, §3, §4

Rhizome Johnsongrass = details: Sorghum halepense, pre-emergence, Rhjg, 11.2 kg/ha, 10-14 days, read-out: herbicidal rating (% inhibition)
Protocol: as §1, §2, §3, §4

Barnyardgrass = details: Echinochloa crus-galli, pre-emergence, Bygr, 11.2 kg/ha, 10-14 days, read-out: herbicidal rating (% inhibition)
Protocol: as §1, §2, §3, §4

Morningglory = details: Ipomoea, pre-emergence, Mogl, 11.2 kg/ha, 10-14 days, read-out: herbicidal rating (% inhibition)
Protocol: as §1, §2, §3, §4

Downy Brome = details: Bromus tectorum, pre-emergence, Dobr, 11.2 kg/ha, 10-14 days, read-out: herbicidal rating (% inhibition)
Protocol: as §1, §2, §3, §4

Quackgrass = details: pre-emergence, Rhqg, 11.2 kg/ha, 10-14 days, read-out: herbicidal rating (% inhibition)
Protocol: as §1, §2, §3, §4

Common Lambsquarters = details: Chenopodium album, pre-emergence, Colq, 11.2 kg/ha, 10-14 days, read-out: herbicidal rating (% inhibition)
Protocol: as §1, §2, §3, §4

Pennsylvania Smartweed = details: pre-emergence, Pesw, 11.2 kg/ha, 10-14 days, read-out: herbicidal rating (% inhibition)
Protocol: as §1, §2, §3, §4

Canada thistle = details: Cirsium arvense, pre-emergence, Cath, 11.2 kg/ha, 10-14 days, read-out: herbicidal rating (% inhibition)
Protocol: as §1, §2, §3, §4

Measured: inhibition at 11200 g/ha

COC(=O)c1c(C(F)(F)F)nc(OC)c(C(=O)NCCO)c1CC(C)C [Compound 25, 3-pyridinecarboxylic acid, 5-[[(2-hydroxyethyl)amino]carbonyl]-6-methoxy-4-(2-methylpropyl)-2-(trifluoromethyl)-, methyl ester, hydrate (1:0.2)]
0 to 24%: all assays above

COC(=O)c1c(OC)nc(C(F)(F)F)c(C(=O)SC)c1CC(C)C [Compound 34, 3-pyridinecarboxylic acid, 2-methoxy-4-(2-methylpropyl)-5-[(methylthio)carbonyl]-6-(trifluoromethyl)-, methyl ester]
50 to 74%: Velvetleaf
75 to 100%: all other assays above

COC(=O)c1c(C(F)(F)F)nc(OC)c(-n2cccc2)c1CC(C)C [Compound 14, 3-pyridinecarboxylic acid, 6-methoxy-4-(2-methylpropyl)-5-(1H-pyrro1-1-yl)-2-(trifluoromethyl)-, methyl ester]
50 to 74%: Quackgrass
0 to 24%: Cocklebur | Yellow Nutsedge
75 to 100%: all other assays above

COC=Nc1c(C(F)(F)F)nc(OC)c(C(=O)OC)c1CC(C)C [Compound 76, 3-pyridinecarboxylic acid, 2-methoxy-5-[(methoxymethylene)amino]-4-(2-methylpropyl)-6-(trifluoromethyl)-, methyl ester]
0 to 24%: Cocklebur
50 to 74%: Yellow Nutsedge | Rhizome Johnsongrass
75 to 100%: all other assays above

COC(=O)c1c(OC)nc(C(F)F)c(C(=O)OC)c1CC(C)C [Compound 31, 3,5-pyridinedicarboxylic acid, 2-(difluoromethyl)-6-methoxy-4-(2-methylpropyl)-, dimethyl ester]
0 to 24%: Cocklebur | Canada thistle
50 to 74%: Yellow Nutsedge
75 to 100%: all other assays above

COC(=O)c1c(OC)nc(C(F)(F)F)c(C(=O)n2cccn2)c1C1CCC1 [Compound 52, 3-pyridinecarboxylic acid, 4-cyclobutyl-2-methoxy-5-(1H-pyrazo1-1-ylcarbonyl)-6-(trifluoromethyl)-, methyl ester]
0 to 24%: Rhizome Johnsongrass
75 to 100%: all other assays above
